Experimental data reported in article PMC4642525, “Conjugates of γ-Carbolines and Phenothiazine as new selective inhibitors of butyrylcholinesterase and blockers of NMDA receptors for Alzheimer Disease” (Scientific Reports, 2015).
“Also recorded” adds a separate entry of the source. Where two headings read alike, the source gives them in different places.

Key:
[1] = target: T1, ifenprodil binding site of NMDA receptor (NR2B subunit containing) (Rattus norvegicus, UniProt P35439+Q00960); assay: Radioligand binding, [3H]ifenprodil site of NMDA receptor, hippocampal membranes; settings: for % of [3H]ifenprodil blockade at 100 μM of compound: 100 μM compound
T1 construct: A membrane preparation of hippocampus for radioligand analysis was prepared; from tissue; host or cells: rat hippocampal membranes
T1 sequence (Q00960 27-1482, other chains not shown): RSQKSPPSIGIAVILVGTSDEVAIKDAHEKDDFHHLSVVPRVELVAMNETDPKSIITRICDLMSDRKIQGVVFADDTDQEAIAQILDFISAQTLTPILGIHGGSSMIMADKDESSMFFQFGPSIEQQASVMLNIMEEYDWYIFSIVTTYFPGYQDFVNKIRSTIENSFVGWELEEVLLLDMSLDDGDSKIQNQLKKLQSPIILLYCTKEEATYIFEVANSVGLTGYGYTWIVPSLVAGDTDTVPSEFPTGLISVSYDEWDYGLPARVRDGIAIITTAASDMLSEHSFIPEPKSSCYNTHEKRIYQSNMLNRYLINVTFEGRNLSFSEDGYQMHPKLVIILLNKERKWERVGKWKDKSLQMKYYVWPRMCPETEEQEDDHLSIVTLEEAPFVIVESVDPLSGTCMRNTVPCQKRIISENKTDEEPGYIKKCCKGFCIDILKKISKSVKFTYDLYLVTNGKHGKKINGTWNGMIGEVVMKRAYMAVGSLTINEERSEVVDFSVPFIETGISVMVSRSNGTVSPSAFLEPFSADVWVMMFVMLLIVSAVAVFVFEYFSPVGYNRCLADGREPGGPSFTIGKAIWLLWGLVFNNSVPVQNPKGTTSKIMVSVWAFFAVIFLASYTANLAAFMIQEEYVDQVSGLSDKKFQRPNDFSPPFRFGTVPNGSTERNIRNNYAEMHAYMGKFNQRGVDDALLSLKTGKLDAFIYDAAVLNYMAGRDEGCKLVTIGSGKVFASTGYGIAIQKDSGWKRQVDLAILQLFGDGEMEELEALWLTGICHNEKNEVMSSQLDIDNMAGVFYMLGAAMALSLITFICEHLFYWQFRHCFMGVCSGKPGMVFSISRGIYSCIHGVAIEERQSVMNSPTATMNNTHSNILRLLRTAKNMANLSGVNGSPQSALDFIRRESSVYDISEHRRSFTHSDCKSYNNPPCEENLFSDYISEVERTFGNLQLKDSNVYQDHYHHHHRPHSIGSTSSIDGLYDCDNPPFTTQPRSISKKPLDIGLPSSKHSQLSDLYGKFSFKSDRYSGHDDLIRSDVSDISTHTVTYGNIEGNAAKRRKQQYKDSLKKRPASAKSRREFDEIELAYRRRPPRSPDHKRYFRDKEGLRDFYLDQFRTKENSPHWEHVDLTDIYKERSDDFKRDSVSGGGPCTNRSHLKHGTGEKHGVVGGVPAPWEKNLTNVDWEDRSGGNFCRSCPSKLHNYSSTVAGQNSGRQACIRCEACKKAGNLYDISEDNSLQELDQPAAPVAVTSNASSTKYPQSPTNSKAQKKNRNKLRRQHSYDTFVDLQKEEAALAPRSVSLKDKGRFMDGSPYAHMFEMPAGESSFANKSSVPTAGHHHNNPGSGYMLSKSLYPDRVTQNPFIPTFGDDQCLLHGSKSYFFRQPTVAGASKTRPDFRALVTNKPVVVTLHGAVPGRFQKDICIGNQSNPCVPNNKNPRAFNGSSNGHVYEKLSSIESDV
Description: (§1) Effect of test compounds on the radioligand binding to NMDA receptors was determined by using a modified method as reported earlier by Zhou L-M and coworkers. Two radioactive ligands were used: [^3H] MK-801 (dizocilpine) with a specific activity of 210 Ci/mmol binding to all isolated NMDA receptors, and [^3H] ifenprodil with a specific activity of 79 Ci/mmol binding only to NMDA receptors containing the NR2B subunit.
(§2) A membrane preparation of hippocampus for radioligand analysis was prepared by the techniques described previously. The obtained membrane pellet was resuspended in a work buffer (5 mM HEPES/4.5 mM Tris buffer, pH 7.6) in a ratio of 1:5, and stored in liquid nitrogen. The reaction mixture (the final volume of 0.5 ml) contained 200 μl of the working buffer, 50 μl of 50 nM radioligand solution and 250 μl of the membrane suspension. Nonspecific binding was determined in the presence of 50 μl of […] of unlabeled ligand.
(§3) For binding study, the reaction mixture was incubated at room temperature for 2 hours. After incubation, the samples were filtered through the glass-fiber filters GF/B (Whatman), washed with the work buffer, dried and transferred to scintillation vials to which 5 ml of scintillation fluid was added containing 4g diphenyl oxazole (PPO), 0.2g diphenyloxazoil benzene (POPOP) and 1 liter of toluene. Radioactivity was determined in the scintillation counter TriCarb2800 TR (PerkinElmer, Packard, USA) with counting efficiency of about 65%.
(§4) Investigation of the effect of the tested compounds on the binding of [^3H]

[2] = target: T2, МК-801 binding site of NMDA receptor (Rattus norvegicus, UniProt P35439); assay: Radioligand binding, [3H]MK-801 site of NMDA receptor, hippocampal membranes; settings: for % of [3H]МК-801 blockade at 100 μM of compound: 100 μM compound
T2 construct: A membrane preparation of hippocampus for radioligand analysis was prepared; from tissue; host or cells: rat hippocampal membranes
Description: as §1, §2, §3, §4

[3] = target: T3, Acetylcholinesterase (AChE, EC 3.1.1.7, from human erythrocyte) (Homo sapiens, UniProt P22303); assay: biochemical; format: biochemical
T3 construct: Acetylcholinesterase (AChE, EC 3.1.1.7, from human erythrocyte); purchased Sigma-Aldrich (Germany); host or cells: human erythrocytes
T3 sequence (P22303 other isoform, or with tags, fused parts or gaps): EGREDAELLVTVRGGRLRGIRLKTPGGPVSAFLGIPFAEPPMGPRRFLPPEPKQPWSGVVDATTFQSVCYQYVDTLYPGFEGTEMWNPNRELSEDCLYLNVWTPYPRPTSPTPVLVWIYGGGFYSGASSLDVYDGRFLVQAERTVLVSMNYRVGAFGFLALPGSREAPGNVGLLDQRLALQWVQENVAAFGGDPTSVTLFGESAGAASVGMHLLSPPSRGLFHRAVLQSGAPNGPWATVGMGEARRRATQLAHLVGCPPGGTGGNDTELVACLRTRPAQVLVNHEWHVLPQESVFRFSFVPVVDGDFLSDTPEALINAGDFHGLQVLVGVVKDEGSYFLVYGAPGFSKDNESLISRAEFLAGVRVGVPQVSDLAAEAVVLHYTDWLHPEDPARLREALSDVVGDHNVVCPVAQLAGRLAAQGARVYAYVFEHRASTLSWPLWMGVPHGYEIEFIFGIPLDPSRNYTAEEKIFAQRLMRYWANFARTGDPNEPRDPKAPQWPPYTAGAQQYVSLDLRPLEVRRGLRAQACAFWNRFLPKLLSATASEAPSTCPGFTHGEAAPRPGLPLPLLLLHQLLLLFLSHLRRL
Description: (§5) Acetylcholinesterase (AChE, EC 3.1.1.7, from human erythrocyte), butyrylcholinesterase (BChE, EC 3.1.1.8, from equine serum), carboxylesterase (CaE, EC 3.1.1.1, from porcine liver), acetylthiocholine iodide (ATCh), butylthiocholine iodide (BTCh), 5,5´-dithiobis-(2-nitrobenzoic acid) (DTNB), 4-nitrophenyl acetate (4-NPA), were purchased from Sigma-Aldrich (Germany).
(§6) AChE and BChE activities were measured by the method of Ellman and coworkers as described earlier. The assay solution consisted of 0.1 M K/Na phosphate buffer pH 7.5, 25 °C with the addition of 0.33 mM DTNB, 0.02 unit/mL of AChE or BChE and 1 mM of substrate (ATCh or BTCh, respectively). Assays were carried out with a blank containing all components except ATCh and BTCh in order to account for non-enzymatic reaction.
(§7) The tested compounds were dissolved in DMSO; the incubation mixture contained 2% of the solvent. […] The test compounds were added to the assay solution and preincubated at 25 °C with the enzymes for 10 min followed by the addition of substrate. A parallel control was made for the assay solution with no inhibitor. Measurements were performed in a BioRad Benchmark Plus microplate spectrophotometer (France). Each experiment was performed in triplicate. The results were expressed as the mean ± SEM. The reaction rates in the presence and absence of inhibitor were compared, and the percent of residual enzyme activity due to the presence of test compounds was calculated.

[4] = target: T4, butyrylcholinesterase (BChE, EC 3.1.1.8, from equine serum) (Equus caballus, UniProt P81908); assay: biochemical; format: biochemical
T4 construct: butyrylcholinesterase (BChE, EC 3.1.1.8, from equine serum); purchased Sigma-Aldrich (Germany); host or cells: equine serum
T4 sequence (P81908 whole entry): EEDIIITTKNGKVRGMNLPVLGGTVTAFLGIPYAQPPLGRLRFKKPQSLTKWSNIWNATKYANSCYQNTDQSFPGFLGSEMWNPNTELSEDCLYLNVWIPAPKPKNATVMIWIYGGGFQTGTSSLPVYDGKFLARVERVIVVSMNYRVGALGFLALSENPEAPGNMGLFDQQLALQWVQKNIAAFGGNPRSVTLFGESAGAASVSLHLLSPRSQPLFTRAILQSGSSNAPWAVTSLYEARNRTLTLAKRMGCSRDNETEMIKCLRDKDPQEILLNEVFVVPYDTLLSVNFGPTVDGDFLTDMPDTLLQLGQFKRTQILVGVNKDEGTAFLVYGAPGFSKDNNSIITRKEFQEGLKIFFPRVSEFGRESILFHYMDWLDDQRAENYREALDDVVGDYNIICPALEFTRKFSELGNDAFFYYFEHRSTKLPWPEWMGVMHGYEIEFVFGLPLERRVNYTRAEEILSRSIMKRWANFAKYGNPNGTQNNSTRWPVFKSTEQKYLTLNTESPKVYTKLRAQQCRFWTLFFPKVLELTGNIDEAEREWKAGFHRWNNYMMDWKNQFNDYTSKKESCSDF
Description: as §5, §6, §7

[5] = target: T5, carboxylesterase (CaE, EC 3.1.1.1, from porcine liver) (Sus scrofa, UniProt Q29550); assay: In vitro CaE inhibition (4-nitrophenyl acetate hydrolysis); format: biochemical; settings: pH 8.0, 25 °C, 10 min preincubation, read-out: IC50 (μM) ± SEM CaE
T5 sequence (Q29550 19-566): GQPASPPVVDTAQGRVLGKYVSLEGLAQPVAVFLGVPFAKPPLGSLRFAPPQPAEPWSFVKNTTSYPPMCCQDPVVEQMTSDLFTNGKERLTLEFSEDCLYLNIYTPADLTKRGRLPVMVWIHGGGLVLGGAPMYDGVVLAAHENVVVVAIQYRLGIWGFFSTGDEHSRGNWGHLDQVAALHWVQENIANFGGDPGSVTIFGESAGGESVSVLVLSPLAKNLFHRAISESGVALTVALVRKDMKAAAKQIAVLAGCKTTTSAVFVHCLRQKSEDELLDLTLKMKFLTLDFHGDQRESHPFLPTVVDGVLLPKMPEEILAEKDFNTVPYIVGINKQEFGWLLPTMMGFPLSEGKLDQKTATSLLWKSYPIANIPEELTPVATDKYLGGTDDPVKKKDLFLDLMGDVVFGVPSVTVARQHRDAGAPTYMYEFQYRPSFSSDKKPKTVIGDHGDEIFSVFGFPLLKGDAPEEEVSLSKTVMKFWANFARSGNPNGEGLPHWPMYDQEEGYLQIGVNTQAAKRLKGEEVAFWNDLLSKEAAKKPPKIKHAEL
Description: as §5
The activity of CaE was determined spectrophotometrically by the release of 4-nitrophenol at 405 nm[51]. The assay solution consisted of 0.1 M K/Na phosphate buffer pH 8.0, 25 °C with the addition of 1 mM 4-nitrophenyl acetate and 0.02 unit/mL of CaE. Assays were carried out with a blank containing all components except CaE.
as §7

[6] = target: T4, butyrylcholinesterase (BChE, EC 3.1.1.8, from equine serum); assay: biochemical; format: biochemical; settings: for αKi (non-competitive inhibition constant) / Ki: BChE, means ± SEM, at least three experiments; for Ki: read-out: Ki (competitive inhibition constant); for type of BChE inhibition: Lineweaver-Burk analysis
Description: The test compounds were preincubated with the enzymes at 25 °C for 10 min, followed by the addition of the substrates. Parallel controls were made for an assay of the rate of hydrolysis of the same concentrations of substrates in the solutions with no inhibitor. The kinetic parameters of substrate hydrolysis were determined. Measurements were performed in a BioRad Benchmark Plus microplate spectrophotometer (France). Each experiment was performed in triplicate.

[7] = rat hippocampal membranes, read-out: [3H]ifenprodil, IC50
[8] = rat hippocampal membranes, read-out: [3H]МК-801, IC50
[9] = human erythrocyte AChE, pH 7.5, 25 °C, 10 min preincubation, read-out: IC50 (μM) ± SEM AChE
[10] = equine serum BChE, pH 7.5, 25 °C, 10 min preincubation, read-out: IC50 (μM) ± SEM BChE

Row | SMILES | % of [3H]ifenprodil blockade at 100 μM of compound ([1]; rat hippocampal membranes) | IC50 [1, 7] | % of [3H]МК-801 blockade at 100 μM of compound ([2]; rat hippocampal membranes) | IC50 [2, 8] | IC50 [3] | IC50 [4] | IC50 [5] | IC50 [3, 9] | IC50 [4, 10] | αKi (non-competitive inhibition constant) [6] | Ki [6] | type of BChE inhibition [6] | IC50 [1] | IC50 [2] | times higher BChE inhibitory activity versus (C-2b) ([4]; comparison of IC50 values, 1-oxopropylene vs 2-hydroxypropylene spacer, same R1, R2) | IC50 ([1]; read-out: [3H]ifenprodil, IC50, rat hippocampal membranes) | IC50 ([2]; read-out: [3H]МК-801, IC50, rat hippocampal membranes)
1 | Cc1ccc2c(c1)c1c(n2CCc2ccc(C)nc2)CCN(C)C1 [dimebon, reference compound] | 34.1 ± 4.9% | 82.4 ± 4.1 µM | 27.8 ± 3.9% | 91.5 ± 7.7 µM | 36.3 ± 5.8 µM | 5.76 ± 0.51 µM |  |  |  |  |  |  |  |  |  |  | 
2 | O=[N+]([O-])c1ccc(OP(=O)(O)Oc2ccc([N+](=O)[O-])cc2)cc1 [BNPP, Bis-4-nitrophenyl phosphate, reference compound] |  |  |  |  |  |  | 1.8 ± 0.11 µM |  |  |  |  |  |  |  |  |  | 
3 | CCc1ccc2c(c1)c1c(n2CCC(=O)N2c3ccccc3Sc3ccccc32)CCN(C)C1 [C-1g] | 64.6 ± 5.2% | 15.4 ± 3.9 µM | 89.4 ± 4.6% | 13.2 ± 2.2 µM |  |  | > 200 µM | > 100 µM | 1.36 ± 0.06 µM | 0.99 ± 0.04 µM | 0.46 ± 0.02 µM |  |  |  |  |  | 
4 | CCN1CCc2c(c3cc(F)ccc3n2CC(O)CN2c3ccccc3Sc3ccccc32)C1 (racemic) [C-2b] | 25.7 ± 4.6% | 81.2 ± 6.7 µM | 24.1 ± 1.9% | 106 ± 9.2 µM |  |  | > 200 µM |  | 2.01 ± 0.04 µM | 2.98 ± 0.19 µM | 0.82 ± 0.02 µM | mixed-type inhibition; also recorded: mixed-type reversible inhibitors |  |  |  |  | 
5 | CCN1CCc2c(c3cc(F)ccc3n2CCC(=O)N2c3ccccc3Sc3ccccc32)C1 [C-1f] | 78.2 ± 6.8% |  | 82.4 ± 7.3% |  |  |  |  | > 200 µM | 0.58 ± 0.06 µM | 0.52 ± 0.04 µM | 0.17 ± 0.02 µM | mixed-type inhibition; also recorded: mixed-type reversible inhibitors | 8.8 ± 1.8 µM | 15.8 ± 1.8 µM | 3.5 times |  | 
6 | CCN1CCc2c(c3cc(C)ccc3n2CCC(=O)N2c3ccccc3Sc3ccccc32)C1 [C-1b] | 48.1 ± 5.9% | 74.4 ± 4 µM | 95.7 ± 1.0% | 8.5 ± 0.8 µM |  |  | > 200 µM | > 200 µM | 2.04 ± 0.55 µM | 1.46 ± 0.40 µM | 0.43 ± 0.05 µM |  |  |  |  |  | 
7 | Cc1ccc2c(c1)c1c(n2CC(O)CN2c3ccccc3Sc3ccccc32)CCN(C)C1 (racemic) [C-2a] | 69.7 ± 8.3% | 57.2 ± 6.7 µM |  | 84.8 ± 9.2 µM |  |  | > 200 µM |  | 11.7 ± 0.4 µM |  |  |  |  |  |  |  | 
8 | COc1ccc2c(c1)c1c(n2C[C@@H](O)CN2c3ccccc3Sc3ccccc32)CCN(C)C1 [C-2c] | 47.4 ± 6.6% |  | 19.1 ± 2.2% |  |  |  |  |  | 0.39 ± 0.02 µM | 0.89 ± 0.18 µM | 0.25 ± 0.04 µM |  |  |  |  | 115 ± 9.3 µM | 113 ± 11.1 µM
9 | CC(C)c1ccc2c(c1)c1c(n2CCC(=O)N2c3ccccc3Sc3ccccc32)CCN(C)C1 [C-1h] |  | 85.8 ± 7.2 µM | 80.3 ± 6.9% | 17.8 ± 2 µM |  |  | 120 ± 13 µM | > 100 µM | 2.79 ± 0.09 µM | 1.94 ± 0.01 µM |  | non-competitive mechanism |  |  |  |  | 
10 | CCN1CCc2c(c3ccccc3n2CCC(=O)N2c3ccccc3Sc3ccccc32)C1 [C-1e] | 69.4 ± 3.3% | 13.4 ± 2.6 µM | 76.1 ± 1.2% | 14.6 ± 1.9 µM |  |  | > 200 µM | > 200 µM | 0.52 ± 0.01 µM | 0.65 ± 0.07 µM | 0.26 ± 0.02 µM |  |  |  |  |  | 
11 | CN(C)c1ccc2nc3ccc(=[N+](C)C)cc-3sc2c1 [MB, methylene blue, reference compound] |  |  | 2.0 ± 4.0% |  |  |  |  |  |  | 0.64 ± 0.02 µM |  |  |  |  |  |  | 
12 | c1ccc2c(c1)Nc1ccccc1S2 [phenothiazine] |  |  |  |  |  | 137 ± 31 µM |  |  |  |  |  |  |  |  |  |  | 
13 | CN1CCc2c(c3ccccc3n2CCC(=O)N2c3ccccc3Sc3ccccc32)C1 [C-1d] | 60.1 ± 1.4% | 23.4 ± 0.7 µM | 74.9 ± 1.1% | 18.5 ± 0.9 µM |  |  | > 200 µM | > 200 µM | 1.07 ± 0.12 µM | 1.64 ± 0.20 µM | 0.37 ± 0.01 µM |  |  |  |  |  | 
14 | Cc1ccc2c(c1)c1c(n2CCC(=O)N2c3ccccc3Sc3ccccc32)CCN(C)C1 [C-1a] | 42.6 ± 7.2% | 88.4 ± 8.3 µM | 80.4 ± 6.6% | 13.5 ± 3.6 µM |  |  | > 200 µM | > 200 µM | 62.6 ± 4.3 µM |  |  |  |  |  |  |  | 
15 | CN1CCc2c(c3cc(F)ccc3n2CCC(=O)N2c3ccccc3Sc3ccccc32)C1 [C-1c] | 50.2 ± 5.2% | 55.1 ± 5.8 µM | 78.7 ± 1.4% | 17.7 ± 2.6 µM |  |  | > 200 µM | > 200 µM | 1.79 ± 0.28 µM | 1.27 ± 0.41 µM | 0.48 ± 0.06 µM |  |  |  |  |  | 
